Target: 5-hydroxytryptamine receptor 5A (Homo sapiens, UniProt P47898)
Test: Binding Inhibition Assay: A solution of the compound to be tested and 100 μM 5-CT (5-carboxamidetriptamine) in DMSO was added to a 96-well plate at 2 μl/well, suspended in an incubation buffer, and a membrane from HEK293 cells for forced expressions of a human 5-HT5A receptor prepared at 200 ug/ml was added at 100 μl/well. After incubation at room temperature for 15 minutes, a [3H]5-CT solution (2 nM [3H]5-CT, incubation buffer) was added thereto at 100 μl/well.Separately, 100 μl of the solution was distributed into a liquid scintillation vial, and 2 ml of Aquasol II (registered trademark) was added thereto, followed by stirring. Then, radioactivity was measured by a liquid scintillation counter. It was incubated at 37C. for 60 minutes. The reaction mixture was sucked into 96-well GF/C filter plate that had been pre-treated with 0.2% polyethyleneimine, and washed six times with an ice-cooled, 50 mM Tris (pH 7.5) buffer. The GF/C filter plate was dried.
Type: cell membranes

Chain of 5-hydroxytryptamine receptor 5A (P47898 whole entry): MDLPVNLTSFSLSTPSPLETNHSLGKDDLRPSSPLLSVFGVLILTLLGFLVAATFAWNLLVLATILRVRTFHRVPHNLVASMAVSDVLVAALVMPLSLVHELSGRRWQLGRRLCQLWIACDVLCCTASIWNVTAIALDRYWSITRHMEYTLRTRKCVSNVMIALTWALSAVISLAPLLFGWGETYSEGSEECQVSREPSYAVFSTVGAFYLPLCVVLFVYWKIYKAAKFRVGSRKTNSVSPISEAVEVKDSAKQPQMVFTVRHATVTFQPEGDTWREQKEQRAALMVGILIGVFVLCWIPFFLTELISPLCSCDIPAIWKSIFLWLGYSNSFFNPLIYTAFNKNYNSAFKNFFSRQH

Ki: 4.6 nM
SMILES: NC(N)=NC(=O)c1ccc2c(C(F)F)cnc(-c3c(F)cccc3F)c2c1

Reference: ChEMBL document CHEMBL3638868, “Nitrogenous-ring acylguanidine derivative” (2014)
